Values quoted from earlier work in patent publication US8937168B2, “Method of producing purified rebaudioside A compositions using solvent/antisolvent crystallization” (Cargill, Incorporated, priority 2007, dated 2015).

Settings: relative to sucrose; background statement

For `C=C1C[C@@]23CC[C@H]4[C@@](C)(CCC[C@@]4(C)C(=O)O[C@@H]4O[C@H](CO)[C@@H](O)[C@H](O)[C@H]4O)[C@@H]2CC[C@]1(O[C@@H]1O[C@H](CO)[C@@H](O)[C@H](O[C@@H]2O[C@H](CO)[C@@H](O)[C@H](O)[C@H]2O)[C@H]1O[C@@H]1O[C@H](CO)[C@@H](O)[C@H](O)[C@H]1O)C3` [Rebaudioside A, rebaudioside A], the “times the sweetness of sucrose” value is given as 250-450 times.
